Patent US20080318876A1, “Use of Ginsenosides in the Treatment of Aids” (priority 2004, published 2008)
pEC50, pIC50: −log10 of the molar value. Read-outs that look alike come from different tables or passages of the source.

Experiments:
[1] = system: HIV-1 in Hela-CD4 cells; test: Combination medication JHR and AZT (MAGI test); type: cell-based
Method: Method: For the experiment, the MAGI test method was adopted (the same as above).
(A) Single-agent medication: five doses of AZT were used in amount of from 1 μM to 3.9 nM, and were designated AZT1-5, five doses of JHR were designated in amount of 400 ug/ml to 1.56 ug/ml, and IC50 were obtained respectively.
Half dosage of AZT was combined with half dosage of JHR-1 as one sample. AZT1 was combined respectively with any of JHR1-JHR5; Each of AZT2, AZT3, AZT4, AZT5 was respectively combined with any of […]. So a total of 25 concentration combinations could be used. Each concentration was set in duplicate wells (2 wells). Additional group was taken as cell and virus controls.
(C) Comparing each drug combination with the virus group to have the inhibition rate. The inhibition rate of each drug combination was compared with the sole AZT IC50 to obtain the difference of functions each other.

[2] = system: HIV-1 (single-life-cycle reporter HIV) in Hela-CD4-LTR-gal cells; test: Inhibition of HIV-1 replication in HeLa-CD4 cells (MAGI test); type: cell-based; conditions: for inhibition at 200 µg/mL: Human immunodeficiency virus 1, MAGI, read-out: Inhibition Rate (0.2 mg/ml)
Method: Three types of cells (such as MT4, Hela-CD4, PBMC) were infected respectively with HIV-1 virus for observation of the inhibiting effects of ginseng composition (JHR) prepared in Example 1 upon the HIV-1 replication.
Virus: Single-life-cycle reporter HIV was acquired by transfection with HIV plasmids.
Method: Hela-CD4-LTR-gal cell was inoculated into a 24-well plate at 0.4×10^5/well and cultured for 24 hours and let the cells absorb and adhere to the wall. On the second day, the supernatants were sucked away from the wells and 100 μl drug (drug control) or drug (drug solutions with different concentrations) and HIV-1 or culture medium (Mock) were added. After 2 hours, 200 μl of identical drug solutions or culture medium was added into each well for culturing at 37° C. in a CO2 incubator for 48 hours and detecting by the following method.
Fixation: The supernatants were sucked away from each well and adding the fixative solution (1 ml), and then by staining with K4[Fe(CN)6].3H2O, K3[Fe(CN)6] and X-gel.
Counting: For the blue cell counts (BCC) within each well, the following formula is used to calculate the IR and then IC50.
The same method as that in example 1 is applied, except that the drug added into the wells is Ginsenoside monomer, and the concentration thereof is listed in table 3.

[3] = target: T1, gp120 protein (Human immunodeficiency virus type 1 group M subtype B, UniProt P03375); type: binding; conditions: BIACORE chip, genetically recombined gp120
T1 construct: The genetically recombined gp41, gp120 were placed on the chip of BIACORE analyzer

[4] = system: HIV single life cycle model; test: Viral life cycle stage targeted: dosing at different times post-infection (single life cycle model, MAGI or Luciferase); type: cell-based
[5] = target: gp41 protein (Human immunodeficiency virus type 1 group M subtype B, UniProt P03375); test: BIACORE binding to gp41 protein; conditions: BIACORE chip, genetically recombined gp41; conjugation to gp41 stronger than to gp120
Source text: The genetically recombined gp41, gp120 were placed on the chip of BIACORE analyzer, respectively, after adding a certain concentration of Rb3 in sufficient amount, the instrument could detect whether or not there was a binding.

SMILES: Cc1cn([C@H]2C[C@H](N=[N+]=[N-])[C@@H](CO)O2)c(=O)[nH]c1=O [AZT]
- pEC50 ([1]; AZT alone or AZT combined with JHR dose 1-5, MAGI test, read-out: ED50 (the source's name)): 7.34
- pIC50 ([1]; AZT alone, read-out: IC50 of AZT alone): 7.34
- pIC50 ([1]; combined with the first dose of JHR, read-out: IC50 of AZT after combining with the first dose of JHR): 8.24

SMILES: CC(C)=CCC[C@](C)(OC1OC(COC2OC(CO)C(O)C(O)C2O)C(O)C(O)C1O)[C@H]1CC[C@]2(C)[C@@H]1[C@H](O)C[C@@H]1[C@@]3(C)CC[C@H](OC4OC(CO)C(O)C(O)C4OC4OC(CO)C(O)C(O)C4O)C(C)(C)[C@@H]3CC[C@]12C (stereo partly shown) [Rb1]
- inhibition at 200 µg/mL [2]: 41.9%

SMILES: CC(C)=CCC[C@](C)(OC1OC(COC2OCC(O)C(O)C2O)C(O)C(O)C1O)[C@H]1CC[C@]2(C)[C@@H]1[C@H](O)C[C@@H]1[C@@]3(C)CC[C@H](OC4OC(CO)C(O)C(O)C4OC4OC(CO)C(O)C(O)C4O)C(C)(C)[C@@H]3CC[C@]12C (stereo partly shown) [Rb2]
- inhibition at 200 µg/mL [2]: 42.9%

SMILES: CC(C)=CCC[C@](C)(O[C@@H]1O[C@H](CO[C@@H]2OC[C@@H](O)[C@H](O)[C@H]2O)[C@@H](O)[C@H](O)[C@H]1O)[C@H]1CC[C@]2(C)[C@@H]1[C@H](O)C[C@@H]1[C@@]3(C)CC[C@H](O[C@@H]4O[C@H](CO)[C@@H](O)[C@H](O)[C@H]4O[C@@H]4O[C@H](CO)[C@@H](O)[C@H](O)[C@H]4O)C(C)(C)[C@@H]3CC[C@]12C [Rb3]
- binding to gp120 protein [3]: can bind
- Inhibition rate (%) ([4]; dosing 2 hours post-infection): 83.98%
- Inhibition rate (%) ([4]; dosing 10 hours post-infection): 0%
- Inhibition rate (%) ([4]; dosing 29 hours post-infection): 0%
- Inhibition Rate (0.2 mg/ml) ([2]; Hela-CD4 cell strain, 0.2 mg/ml): 70.68%
- Inhibition Rate (0.4 mg/ml) ([2]; Hela-CD4 cell strain, 0.4 mg/ml): 97.9%
- binding to gp41 protein [5]: can bind

SMILES: CC(C)=CCC[C@](C)(OC1OC(COC2OC(CO)C(O)C2O)C(O)C(O)C1O)[C@H]1CC[C@]2(C)[C@@H]1[C@H](O)C[C@@H]1[C@@]3(C)CC[C@H](OC4OC(CO)C(O)C(O)C4OC4OC(CO)C(O)C(O)C4O)C(C)(C)[C@@H]3CC[C@]12C (stereo partly shown) [Rc]
- inhibition at 200 µg/mL [2]: 60.7%
